Reference: patent US20220132849A1, “USE OF SPIROPIDION” (SYNGENTA CROP PROTECTION AG, priority 2019, published 2022)

Assays:
[1] = tested on: coffee leaf miner (Perileucoptera coffeella); test: Soil drench on naturally infested coffee plants, mortality; assay type: in vivo; details: 30 to 95 days after application, against untreated check plant
Experimental: To the soil surface at the base of separate coffee plants naturally infested with a population of coffee leaf miner (Perileucoptera coffeella) was applied as a drench 50 to 100 mL of an active ingredient (ai) solution at a dose rate of 390 mg ai/plant, wherein the active ingredient was spiropidion, or thiamethoxam as a commercial standard. Spiropidion was applied as a dilution of an SC300 formulation in water. Thiamethoxam was applied as a dilution of a WG25 formulation in water. Mortality rates were recorded as a pest control percentage against an untreated check plant and were evaluated at between 30 and 95 days after soil application of the respective active ingredients.

[2] = tested on: Aphis gossypii; test: Soil drench on naturally infested vegetable plants, mortality; assay type: in vivo; details: soil drench 10 mg ai/plant, 5 to 40 days after application
Experimental: (§1) To the soil at the base of vegetable plants naturally infested with a population of a selected pest (refer Table 2) was applied by drench 30 to 100 mL per plant of an active ingredient (ai) solution at a dose rate of 10 mg ai/plant, wherein the solutions consisted of spiropidion or spirotetramat as active ingredient. Soil application was made 3 to 7 days after transplant in a nursery tray. Spiropidion was applied as a dilution of an SC300 formulation in water. Spirotetramat was applied as a dilution of an SC240 formulation in water. Mortality rates were recorded as a percentage against an untreated check plant and were evaluated at between 5 and 40 days after soil application.

[3] = tested on: Bemisia tabaci; test: as above; assay type: in vivo; details: soil drench 10 mg ai/plant, 5 to 40 days after application
Experimental: as §1

[4] = tested on: Tetranychus urticae; test: as above; assay type: in vivo; details: soil drench 10 mg ai/plant, 5 to 40 days after application
Experimental: as §1

[5] = tested on: Thrips sp.; test: as above; assay type: in vivo; details: soil drench 10 mg ai/plant, 5 to 40 days after application
Experimental: as §1

[6] = Uptake from soil into tomato plants after drench, LC/MS of roots, stem and leaves; design: species or system Solanum lycopersicum Ailsa Craig; details: in vivo
Experimental: In a greenhouse at 20° C., tomato plants (Solanum lycopersicum Ailsa Craig at BBCH 12 growth stage) grown in 50% Jip 3 and 50% peat in 5″ pots were drenched (in five replicates) with 50 mL of a 100 ppm aqueous active ingredient solution (5 mg of active ingredient per plant) prepared from dilution of (i) a spiropidion SC300 formulation (SC=suspension concentrate), and (ii) commercially-available spirotetramat as a SC240 formulation. At four intervals post-treatment (1, 7, 14 and 21 days), tomato plants subjected to treatments (i) and (ii) were sectioned into roots, stem and separate leaf segments, washed and extracted with the quantification by liquid chromatography/mass spectrometry (LC/MS) of amounts (μg) of spiropidion and its dione (cide), and spirotetramat and its dione (cide).

[7] = tested on: selected pests; test: Soil drench on vegetable plants, overall comparison over crops and pests; assay type: in vivo; details: soil treatment at the same dose rate (10 mg ai/plant); range of vegetable crops and pests
Experimental: as §1

CN1COCN(Cc2cnc(Cl)s2)/C1=N\[N+](=O)[O-] [thiamethoxam]
% Mortality rate ([1]; Test no. 1, soil drench 390 mg ai/plant): 39%
% Mortality rate ([1]; Test no. 2, soil drench 390 mg ai/plant): 68%
% Mortality rate ([1]; Test no. 3, soil drench 390 mg ai/plant): 81%
% Mortality rate ([1]; Test no. 4, soil drench 390 mg ai/plant): 73%
% Mortality rate ([1]; Test no. 5, soil drench 390 mg ai/plant): 38%

CCOC(=O)OC1=C(c2cc(C)ccc2C)C(=O)N[C@]12CC[C@@H](OC)CC2 [spirotetramat]
% Mortality rate against untreated plant ([2]; Test no. 8, Eggplant): 71%
% Mortality rate against untreated plant ([2]; Test no. 10, Cucumber): 87%
% Mortality rate against untreated plant ([2]; Test no. 15, Melon): 63%
% Mortality rate against untreated plant ([2]; Test no. 18, Squash): 93%
% Mortality rate against untreated plant ([2]; Test no. 19, Squash): 84%
% Mortality rate against untreated plant ([3]; Test no. 3, Eggplant): 68%
% Mortality rate against untreated plant ([3]; Test no. 4, Eggplant): 93%
% Mortality rate against untreated plant ([3]; Test no. 5, Eggplant): 76%
% Mortality rate against untreated plant ([3]; Test no. 6, Eggplant): 91%
% Mortality rate against untreated plant ([3]; Test no. 7, Eggplant): 96%
% Mortality rate against untreated plant ([3]; Test no. 14, Melon): 64%
% Mortality rate against untreated plant ([3]; Test no. 16, Squash): 83%
% Mortality rate against untreated plant ([3]; Test no. 17, Squash): 42%
% Mortality rate against untreated plant ([3]; Test no. 20, Tomato): 84%
% Mortality rate against untreated plant ([4]; Test no. 1, Eggplant): 62%
% Mortality rate against untreated plant ([4]; Test no. 2, Eggplant): 85%
% Mortality rate against untreated plant ([4]; Test no. 21, Hot pepper): 45%
% Mortality rate against untreated plant ([5]; Test no. 9, Cucumber): 90%
% Mortality rate against untreated plant ([5]; Test no. 11, Melon): 70%
% Mortality rate against untreated plant ([5]; Test no. 12, Melon): 90%
% Mortality rate against untreated plant ([5]; Test no. 13, Melon): 64%
% Mortality rate against untreated plant ([5]; Test no. 22, Hot pepper): 46%
% Mortality rate against untreated plant ([5]; Test no. 23, Sweet pepper): 53%

CCOC(=O)OC1=C(c2c(C)cc(Cl)cc2C)C(=O)N(C)C12CCN(OC)CC2 [spiropidion]
rate of uptake from the soil compared to spirotetramat [6]: much greater rate of uptake from the soil
mortality rates compared to spirotetramat [7]: consistently higher
